This assay deals with L1210 leukemia ip in BDF1 mice, survival T/C. Nature of the assay: NCI In Vivo Anticancer Drug Screen. Data for tumor model L1210 Leukemia (intraperitoneal) in B6D2F1 (BDF1) mice. As to conditions: endpoint: mean survival time, higher = longer survival. Put shortly:
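Read-out is survival time, reported as the treated-group measurement over the vehicle-control measurement.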

[1] abbreviates: dose: 100.0 mg/kg/injection, schedule: Q04DX003 (ip), vehicle: saline.
Setting [2] is: dose: 200.0 mg/kg/injection, schedule: Q04DX003 (ip), vehicle: saline.
The mark [3] stands for this setting: dose: 400.0 mg/kg/injection, schedule: Q04DX003 (ip), vehicle: saline.
[4] abbreviates: dose: 100.0 mg/kg/injection, schedule: Q01DX001 (ip), vehicle: saline.
Setting [5] is: dose: 200.0 mg/kg/injection, schedule: Q01DX001 (ip), vehicle: saline.
Where [6] appears, read: dose: 400.0 mg/kg/injection, schedule: Q01DX001 (ip), vehicle: saline.
[7] abbreviates: dose: 100.0 mg/kg/injection, schedule: Q01DX001 (ip), vehicle: saline with Tween-80.
[8] abbreviates: dose: 400.0 mg/kg/injection, schedule: Q01DX001 (ip), vehicle: saline with Tween-80.
Setting [9] is: dose: 200.0 mg/kg/injection, schedule: Q01DX001 (ip), vehicle: saline with Tween-80.

Each structure is given as a SMILES string. Several values for one entry are separate records, joined by “and”; a condition that tells them apart may be missing. Equal entries are not always repeated. Inconclusive results and toxic doses are left out.

`COC(=O)C1(C)CCC2(C)CCC3(C)C4=CC=C5C(=CC(=O)C(O)=C5C)C4(C)CCC3(C)C2C1` (configuration not stated): the T/C was 104 % of control (dose: 37.5 mg/kg/injection, schedule: Q01DX001 (sc), vehicle: steriod suspending solution); 98 % of control (dose: 75.0 mg/kg/injection, schedule: Q01DX001 (sc), vehicle: steriod suspending solution); 98 % of control (dose: 150.0 mg/kg/injection, schedule: Q01DX001 (sc), vehicle: steriod suspending solution); 95 % of control (dose: 300.0 mg/kg/injection, schedule: Q01DX001 (sc), vehicle: steriod suspending solution).
Take `O=[N+]([O-])c1ccc(NN=C(C2CC2)C2CC2)c([N+](=O)[O-])c1`: the T/C (dose: 100.0 mg/kg/injection, schedule: Q01DX001 (ip), vehicle: other) is 95 % of control; the T/C (dose: 200.0 mg/kg/injection, schedule: Q01DX001 (ip), vehicle: other) is 98 % of control; the T/C (dose: 400.0 mg/kg/injection, schedule: Q01DX001 (ip), vehicle: other) was 88 % of control.
As for `CC(=O)OC1C(OC(C)=O)C2C(C)(C)CCCC2(C)C2Cc3occc3C(C)C12` (configuration not stated), the T/C is 120 % of control under setting [1], 117 % of control under setting [2] and 103 % of control under setting [3].
For `O=C(NCCCl)NC1CCCC(O)C1` (configuration not stated), the T/C by setting is: under setting [4], 101 % of control; under setting [5], 101 % of control; under setting [6], 93 % of control.
For the molecule `O=C(O)c1ccccc1N=Cc1ccccc1Cl`, the T/C is, setting by setting: (dose: 100.0 mg/kg/injection, schedule: Q04DX002 (ip), vehicle: saline with Tween-80) 101 % of control; (dose: 200.0 mg/kg/injection, schedule: Q04DX002 (ip), vehicle: saline with Tween-80) 108 % of control; (dose: 400.0 mg/kg/injection, schedule: Q04DX002 (ip), vehicle: saline with Tween-80) 93 % of control.
Regarding `CCCC(O)C[N+](=O)[O-]` (configuration not stated), the T/C was 103 % of control under setting [1], 97 % of control under setting [2] and 101 % of control under setting [3].
In the case of `Cc1nonc1NC(=O)OCc1ccccc1`, the T/C runs as follows: (dose: 100.0 mg/kg/injection, schedule: Q04DX002 (ip), vehicle: Klucel (hydroxypropylcellulose) (HPC)) 97 % of control; (dose: 200.0 mg/kg/injection, schedule: Q04DX002 (ip), vehicle: Klucel (hydroxypropylcellulose) (HPC)) 93 % of control; (dose: 400.0 mg/kg/injection, schedule: Q04DX002 (ip), vehicle: Klucel (hydroxypropylcellulose) (HPC)) 104 % of control.
Turning to `CSCOC1C(COC(c2ccccc2)(c2ccccc2)c2ccccc2)OC(OCc2ccccc2)C(NC(C)=O)C1OCc1ccccc1` (configuration not stated), the T/C is 95 % of control (dose: 25.0 mg/kg/injection, schedule: Q01DX001 (ip), vehicle: saline with Tween-80); 91 % of control (dose: 50.0 mg/kg/injection, schedule: Q01DX001 (ip), vehicle: saline with Tween-80); 101 % of control and 91 % of control under setting [7]; 94 % of control under setting [8].
For `COc1ccc(-c2csc(-c3ccccc3)n2)cc1N=Cc1ccc(N(CCCl)CCCl)c(OC)c1`, the T/C (dose: 0.96 mg/kg/injection, schedule: Q01DX009 (ip), vehicle: acetone) is 106 % of control; the T/C (dose: 1.4 mg/kg/injection, schedule: Q01DX009 (ip), vehicle: acetone) was 103 % of control; the T/C (dose: 5.0 mg/kg/injection, schedule: Q01DX015 (ip), vehicle: carboxymethylcellulose (CMC)) is 120 % of control; the T/C (dose: 8.0 mg/kg/injection, schedule: Q01DX015 (ip), vehicle: carboxymethylcellulose (CMC)) was 113 % of control; the T/C (dose: 10.0 mg/kg/injection, schedule: Q01DX009 (ip), vehicle: acetone) is 154 % of control; the T/C (dose: 20.0 mg/kg/injection, schedule: Q01DX009 (ip), vehicle: acetone) was 166 % of control. The T/C reads like this: (dose: 20.0 mg/kg/injection, schedule: Q01DX015 (ip), vehicle: carboxymethylcellulose (CMC)) 153 % of control; (dose: 40.0 mg/kg/injection, schedule: Q01DX009 (ip), vehicle: acetone) 102 % of control; (dose: 66.0 mg/kg/injection, schedule: Q01DX015 (ip), vehicle: carboxymethylcellulose (CMC)) 101 % of control; (dose: 100.0 mg/kg/injection, schedule: Q01DX015 (ip), vehicle: carboxymethylcellulose (CMC)) 104 % of control.
For the molecule `CCC(=O)N(C)c1cccc(O)c1`, the T/C is 114 % of control under setting [7], 94 % of control under setting [9] and 97 % of control under setting [8].
Consider `CCC1=C(C)CC2c3cc(OC)c(OC)cc3CCN2C1` (configuration not stated), for which the T/C runs as follows: (dose: 4.0 mg/kg/injection, schedule: Q04DX003 (ip), vehicle: water) 110 % of control; (dose: 8.0 mg/kg/injection, schedule: Q04DX003 (ip), vehicle: water) 103 % of control; (dose: 16.0 mg/kg/injection, schedule: Q04DX003 (ip), vehicle: water) 104 % of control; (dose: 32.0 mg/kg/injection, schedule: Q04DX003 (ip), vehicle: water) 108 % of control; (dose: 64.0 mg/kg/injection, schedule: Q04DX003 (ip), vehicle: water) 106 % of control; (dose: 75.0 mg/kg/injection, schedule: Q01DX001 (ip), vehicle: saline) 103 % of control. The T/C (dose: 150.0 mg/kg/injection, schedule: Q01DX001 (ip), vehicle: saline) is 94 % of control and the T/C (dose: 300.0 mg/kg/injection, schedule: Q01DX001 (ip), vehicle: saline) is 101 % of control.
For the molecule `CCCC(=O)CCNC`, the T/C reads like this: under setting [4], 103 % of control; under setting [5], 94 % of control; under setting [6], 111 % of control.
In the case of `O=S(=O)([O-])NC1CCCCC1.O=S(=O)([O-])NC1CCCCC1.[Hg+2].[Hg+2].[Hg+2].[O-2].[O-2]`, the T/C by setting is: (dose: 0.5 mg/kg/injection, schedule: Q01DX009 (ip), vehicle: saline with Tween-80) 100 % of control; (dose: 0.5 mg/kg/injection, schedule: Q04DX003 (ip), vehicle: saline sonified) 97 % of control; (dose: 1.0 mg/kg/injection, schedule: Q01DX009 (ip), vehicle: saline with Tween-80) 94 % of control; (dose: 1.0 mg/kg/injection, schedule: Q04DX003 (ip), vehicle: saline sonified) 101 % of control; (dose: 2.0 mg/kg/injection, schedule: Q01DX009 (ip), vehicle: saline with Tween-80) 96 % of control; (dose: 2.0 mg/kg/injection, schedule: Q04DX003 (ip), vehicle: saline sonified) 94 % of control. Besides, the T/C (dose: 4.0 mg/kg/injection, schedule: Q01DX009 (ip), vehicle: saline with Tween-80) is 93 % of control.
Turning to `[CH3][Sb]1([CH3])([I])[CH2]CCC[CH2]1`, the T/C under setting [1] was 97 % of control and the T/C under setting [2] is 97 % of control.
For `CCOc1cccc(Cc2cn(Cc3cccc(NC(=O)c4ccccc4)c3)c(=O)[nH]c2=O)c1`, the T/C under setting [7] is 93 % of control, the T/C under setting [9] was 96 % of control and the T/C under setting [8] is 95 % of control.
As for `CC(=O)Oc1ccc2ncccc2c1Cc1c(OC(C)=O)ccc2ncccc12`, the T/C reads like this: (dose: 75.0 mg/kg/injection, schedule: Q04DX003 (ip), vehicle: saline) 91 % of control; (dose: 150.0 mg/kg/injection, schedule: Q04DX003 (ip), vehicle: saline) 95 % of control; (dose: 300.0 mg/kg/injection, schedule: Q04DX003 (ip), vehicle: saline) 95 % of control.
For `Cc1ccc(N=Nc2ccc(C)cc2NC(=O)Nc2cc(Cl)ccc2C)cc1`, the T/C by setting is: (dose: 100.0 mg/kg/injection, schedule: Q01DX009 (ip), vehicle: Klucel (hydroxypropylcellulose) (HPC)) 93 % of control; (dose: 200.0 mg/kg/injection, schedule: Q01DX009 (ip), vehicle: Klucel (hydroxypropylcellulose) (HPC)) 94 % of control.
